Patent US20250049773A1, “INHIBITION OF STEROL RESPONSE ELEMENT BINDING PROTEINS AS ATARGET FOR SELECTIVE ELIMINATION OF SENESCENT CELLS” (Trustees of Tufts College, priority 2021, published 2025)

Experiments:
IMR-90 fibroblasts = assay: Selective killing of senescent versus quiescent IMR-90 fibroblasts by SRE-BP activation inhibitors; type: cell-based; conditions: 30 μM
Procedure: FIGS. 1A and 1B. SRE-BP activation inhibitors selectively kill senescent cells. IMR-90 fibroblasts were induced to senesce with either 10 Gy of ionizing radiation (IR), 250 nM doxorubicin [SEN(DOXO)], or quiescent vehicle control (QUI) for 24 hours. Media was then replaced with drug-free growth media, and senescence was allowed to develop for 12 days. On day 12, growth media (10% serum) was replaced with quiescence media (0.2% serum+ITS supplement) for 48 hours to induce quiescence in non-senescent cells. On day 14, media was replaced with quiescence media containing increasing doses of fatostatin (A), xanthohumol (B), PF-429242 (C), or 30 micromolar betulin (D). DMSO served as a 0 micromolar vehicle control. \<0.001

[1] = tested on: senescent cells in the liver; assay: Markers of senescence and SASP factors in liver of high fat diet mice by qRT-PCR; type: in vivo
Procedure: FIGS. 2A, 2B, 2C, and 2D. […] Mice were fed a high fat diet (HFD) or high fat diet with 60 mg/kg xanthohumol (HFD+XN) for 12 weeks. RNA was extracted from mice and analyzed by quantitative PCR for (A) p21^WAF1, (B) p16^INK4a, (C) p15^INK4b, and (D) SASP factors.
Prolonged high fat diet (HFD) induces the generation of senescent cells in the liver. To test the hypothesis that inhibitors of SRE-BP activation are senolytic, two groups of mice were fed a HFD for 12 weeks. A control group was fed a HFD alone (FIG. 2, HFD), and an experimental group (FIG. 2, HFD+XN) was fed a HFD and the SRE-BP activation inhibitor xanthohumol (XN). RNA was isolated from liver samples from each group and subjected to quantitative reverse transcriptase polymerase chain reaction (qRT-PCR). […] Accordingly, the data presented in FIG. 2D supports the hypothesis that SRE-BP activation inhibitors, e.g., xanthohumol, are senolytic.

[2] = SASP factor, mice, HFD + 60 mg/kg xanthohumol for 12 weeks vs HFD alone, liver RNA, qRT-PCR
[3] = mice, HFD + 60 mg/kg xanthohumol for 12 weeks vs HFD alone, liver RNA, qRT-PCR

| Compound | toxicity to senescent cells versus quiescent cells (IMR-90 fibroblasts) | expression of 2′, 5′ oligoadenylate synthetase 2 (Oas2) [1, 2] | expression of C-C motif chemokine 2 (Ccl2) [1, 2] | expression of arachidonate 5-lipoxygenase (Alox5) [1, 2] | expression of growth differentiation factor 15 (Gdf15) [1, 2] | expression of interleukin 6 (IL-6) [1, 2] | expression of matrix metalloproteinase 3 (MMP3) [1, 2] | expression of plasminogen activator, urokinase (Plau) [1, 2] | expression of prostaglandin-endoperoxide synthase 2 (Ptgs2) [1, 2] | expression of serpin family E member 1 (Serpine1), encoding plasminogen activator inhibitor 1 (PAI-1) [1, 2] | expression of marker of senescence p15^INK4b [1, 3] | expression of marker of senescence p16^INK4a [1, 3] | expression of marker of senescence p21^WAF1 [1, 3] | several genes characteristic of SASP in mouse livers ([1]; summary statement, after administration of xanthohumol, qRT-PCR) | markers of senescence in vivo ([1]; summary statement, mice, HFD + 60 mg/kg xanthohumol for 12 weeks vs HFD) |
| --- | --- | --- | --- | --- | --- | --- | --- | --- | --- | --- | --- | --- | --- | --- | --- |
| C=C(C)[C@@H]1CC[C@]2(CO)CC[C@]3(C)[C@H](CC[C@@H]4[C@@]5(C)CC[C@H](O)C(C)(C)[C@@H]5CC[C@]43C)[C@@H]12 [betulin] | significantly more toxic to senescent cells than quiescent cells | – | – | – | – | – | – | – | – | – | – | – | – | – | – |
| COc1cc(O)c(CC=C(C)C)c(O)c1C(=O)/C=C/c1ccc(O)cc1 [xanthohumol] | – | reduced expression | reduced expression | reduced expression | reduced expression | reduced expression | reduced expression | reduced expression | reduced expression | reduced expression | reduced expression | reduced expression | reduced expression | reduced | lowers markers of senescence |
